Measurements as given in patent US9161935B2 (TEVA PHARMACEUTICAL INDUSTRIES, LTD., priority 2012, dated 2015).

Tested on: Sub-Populations of Crohn's Disease Patients
Assay: CD-LAQ-201 sub-populations of Crohn's disease patients (Example 2)
Type: in vivo, human
Conditions: for Remission - N (%): % / Remission - N (%): N: week 8
Procedure: This study was conducted according and with similar requirements as presented in Example 1. […] Patients, who have received anti-TNFαs in the past, tend to reflect a more severe, refractory segment of the Crohn's disease population. […] This sub-cohort analysis describes remission rates at week 8 for patients who were classified as having a predominantly inflammatory disease (based on the Montreal classifications) versus those that have a fibrostenotic or penetrating disease.

[1] = Laq 0.5 mg, Oral steroids on Baseline NO
[2] = Laq 0.5 mg, Oral steroids on Baseline YES
[3] = Laq 0.5 mg, Previous Operations NO
[4] = Laq 0.5 mg, Previous Operations YES
[5] = Laq 0.5 mg, Previous use of anti-TNFαs NO
[6] = Laq 0.5 mg, Previous use of anti-TNFαs YES
[7] = Laq 1.0 mg, Oral steroids on Baseline NO
[8] = Laq 1.0 mg, Oral steroids on Baseline YES
[9] = Laq 1.0 mg, Previous Operations NO
[10] = Laq 1.0 mg, Previous Operations YES
[11] = Laq 1.0 mg, Previous use of anti-TNFαs NO
[12] = Laq 1.0 mg, Previous use of anti-TNFαs YES

## CCN(C(=O)c1c(O)c2c(Cl)cccc2n(C)c1=O)c1ccccc1 [laquinimod]
0.5 mg
  effect on remission at week 8 with or without previous anti-TNFαs: remains robust on both sub-populations
0.5 mg or 1 mg
  effect on remission at week 8 in fibrostenotic or penetrating disease: no effect
0.5 mg/day laquinimod
  effectiveness in anti-TNF refractory patients (FIG. 1): robustly effective
1 mg/day laquinimod
  effectiveness in anti-TNF refractory patients (FIG. 1): effective relative to placebo
Laq 0.5 mg, Fibrostenotic
  CDAI Change from Baseline - Mean ± SD: −9.3
  Responders70 - N (%): %: 42.9%
  Responders70 - N (%): N: 3
  Responders100 - N (%): %: 28.6%
  Responders100 - N (%): N: 2
  Remission - N (%): %: 14.3%
  Remission - N (%): N: 1
Laq 0.5 mg, Inflammatory
  CDAI Change from Baseline - Mean ± SD: −125.1
  Responders70 - N (%): %: 68.2%
  Responders70 - N (%): N: 15
  Responders100 - N (%): %: 63.6%
  Responders100 - N (%): N: 14
  Remission - N (%): %: about 60%
  Remission - N (%): N: 13
Laq 0.5 mg, Inflammatory, listed as Laq
  Remission - N (%): %: 59.1%
[1]
  CDAI Change from Baseline - Mean ± SD: −85.3
  Responders70 - N (%): %: 57.9%
  Responders70 - N (%): N: 11
  Responders100 - N (%): %: 47.4%
  Responders100 - N (%): N: 9
  Remission - N (%): %: about 40%
  Remission - N (%): N: 8
Laq 0.5 mg, Oral steroids on Baseline NO, listed as Laq
  Remission - N (%): %: 42.1%
[2]
  CDAI Change from Baseline - Mean ± SD: −119.8
  Responders70 - N (%): %: 70.0%
  Responders70 - N (%): N: 7
  Responders100 - N (%): %: 70.0%
  Responders100 - N (%): N: 7
  Remission - N (%): %: approximately 60%
  Remission - N (%): N: 6
Laq 0.5 mg, Oral steroids on Baseline YES, listed as Laq
  Remission - N (%): %: 60.0%
[3]
  CDAI Change from Baseline - Mean ± SD: −118.1
  Responders70 - N (%): %: 62.5%
  Responders70 - N (%): N: 15
  Responders100 - N (%): %: 58.3%
  Responders100 - N (%): N: 14
  Remission - N (%): %: higher than 50%
  Remission - N (%): N: 13
Laq 0.5 mg, Previous Operations NO, listed as Laq
  Remission - N (%): %: 54.2%
[4]
  CDAI Change from Baseline - Mean ± SD: 3.2
  Responders70 - N (%): %: 60.0%
  Responders70 - N (%): N: 3
  Responders100 - N (%): %: 40.0%
  Responders100 - N (%): N: 2
  Remission - N (%): %: 20.0%
  Remission - N (%): N: 1
[5]
  CDAI Change from Baseline - Mean ± SD: −88.2
  Responders70 - N (%): %: 63.6%
  Responders70 - N (%): N: 7
  Responders100 - N (%): %: 54.5%
  Responders100 - N (%): N: 6
  Remission - N (%): %: 54.5%
  Remission - N (%): N: 6
[6]
  CDAI Change from Baseline - Mean ± SD: −102.7
  Responders70 - N (%): %: 61.1%
  Responders70 - N (%): N: 11
  Responders100 - N (%): %: 55.6%
  Responders100 - N (%): N: 10
  Remission - N (%): %: 44.4%
  Remission - N (%): N: 8
Laq 1.0 mg, Fibrostenotic
  CDAI Change from Baseline - Mean ± SD: −65.8
  Responders70 - N (%): %: 41.7%
  Responders70 - N (%): N: 5
  Responders100 - N (%): %: 41.7%
  Responders100 - N (%): N: 5
  Remission - N (%): %: 16.7%
  Remission - N (%): N: 2
Laq 1.0 mg, Inflammatory
  CDAI Change from Baseline - Mean ± SD: −76.7
  Responders70 - N (%): %: 61.1%
  Responders70 - N (%): N: 11
  Responders100 - N (%): %: 38.9%
  Responders100 - N (%): N: 7
  Remission - N (%): %: 33.3%
  Remission - N (%): N: 6
[7]
  CDAI Change from Baseline - Mean ± SD: −59.4
  Responders70 - N (%): %: 50.0%
  Responders70 - N (%): N: 9
  Responders100 - N (%): %: 33.3%
  Responders100 - N (%): N: 6
  Remission - N (%): %: 22.2%
  Remission - N (%): N: 4
[8]
  CDAI Change from Baseline - Mean ± SD: −93.5
  Responders70 - N (%): %: 58.3%
  Responders70 - N (%): N: 7
  Responders100 - N (%): %: 50.0%
  Responders100 - N (%): N: 6
  Remission - N (%): %: 33.3%
  Remission - N (%): N: 4
[9]
  CDAI Change from Baseline - Mean ± SD: −77.9
  Responders70 - N (%): %: 55.6%
  Responders70 - N (%): N: 10
  Responders100 - N (%): %: 38.9%
  Responders100 - N (%): N: 7
  Remission - N (%): %: 33.3%
  Remission - N (%): N: 6
[10]
  CDAI Change from Baseline - Mean ± SD: −66.0
  Responders70 - N (%): %: 50.0%
  Responders70 - N (%): N: 6
  Responders100 - N (%): %: 41.7%
  Responders100 - N (%): N: 5
  Remission - N (%): %: 16.7%
  Remission - N (%): N: 2
[11]
  CDAI Change from Baseline - Mean ± SD: −38.5
  Responders70 - N (%): %: 27.3%
  Responders70 - N (%): N: 3
  Responders100 - N (%): %: 27.3%
  Responders100 - N (%): N: 3
  Remission - N (%): %: 18.2%
  Remission - N (%): N: 2
[12]
  CDAI Change from Baseline - Mean ± SD: −36.8
  Responders70 - N (%): %: 27.8%
  Responders70 - N (%): N: 5
  Responders100 - N (%): %: 27.8%
